# US20140024700A1, “BLOOD-BORNE MIRNAS AS SURROGATE MARKERS OF DRUG EFFICACY FOR CARDIAC CONDITIONS” (miRagen Therapeutics, Inc., priority 2010, published 2014)
# Assays:
# [1] = system: plasma miRNAs; assay: Real-time PCR of plasma miRNAs, 6% NaCl diet (Example 3); assay type: in vivo, rat
# Method: (§1) One week following the initiation of the 6.0% NaCl diet, rats were dosed subcutaneously (sc) with saline or oligonucleotides (M−10101, 5′-CTTTTTGCTCGTCTTA-3′ (SEQ ID NO: 12) or M-10591, 5′-TCCTAGAAAGAGTAGA-3′ (SEQ ID NO:13)) at 25 mg/kg every 2 weeks. Captopril or water were dosed daily by oral gavage. Echocardiography was performed every 2 weeks starting one week post […] dosing. The Captopril dose for rat was selected to match the standard human dose in man.
# Quantitative real-time PCR analysis from plasma. RNA from plasma samples was isolated using Trizol LS Reagent (Invitrogen), using the manufacturer's protocol. Prior to RNA isolation, […] of two different synthetic C. elegans miRNA sequences were added to serve as internal controls for normalization of target miRNAs. The C. elegans sequences used were cel-miR-2 ([…], SEQ ID NO:5), and cel-lin-4 ([…]; SEQ ID NO:6) (Dharmacon). The final RNA pellet was re-suspended in a final volume equal to the initial plasma volume and 5 μl was used for subsequent RT-PCR reactions, as described above.
# [2] = system: miR-208a, miR-499, miR-208b, Myh6, Myh7b, Myh7, Dynlt1, Vcpip, Tegt; assay: Cardiac tissue real-time PCR, 6% NaCl diet (Example 3); assay type: in vivo, rat; conditions: M-10101 25 mg/kg sc, Captopril po daily
# Method: as §1
# For in vivo real-time PCR analysis, RNA was extracted from cardiac tissue using Trizol (Invitrogen) after which two μg RNA from each tissue sample was used to generate cDNA using Super Script II reverse transcriptase per manufacturer's specifications (Invitrogen). To detect the level of miR-208 RT-PCR was performed using the Taqman MicroRNA assay (Applied Biosystems, ABI) according the manufacturer's recommendations, using 10-100 ng of total RNA. The expression of a subset of genes was analyzed by quantitative real time PCR using Taqman probes purchased from AB.
# [3] = system: Dahl salt-sensitive rats; assay: Dahl salt-sensitive rat model, 6% NaCl diet: body weight and survival (Example 3); assay type: in vivo
# [4] = system: miR-208a, Myh6, Myh7; assay: Cardiac tissue markers by Taqman RT-PCR, 4% NaCl diet (Example 2); assay type: in vivo, rat; conditions: 25 mg/kg sc every 2 weeks; for Myh6 expression in cardiac tissue: 25 mg/kg
# Method: The flowing experimental groups were tested:
# Following catheter implant surgery, high-salt diet was initiated. […] Animals were sacrificed 8 weeks after the initial injection.
# Tissue RNA was isolated using standard Trizol RNA isolation.
Compound,Plasma miR-21 [1],Plasma miR-150 [1],Plasma miR-223 [1],"Plasma miR-423-5p, miR-106b, miR-16, miR-92a, miR-378, miR-210, miR-378*, miR-20b and miR-93 [1]",Myh7b levels in the heart [2],αMHC (Myh6) in the heart (reduced by HS diet) [2],βMHC (Myh7) expression (increase induced by HS diet) [2],Survival (Kaplan-Meier) ([3]; 1.5 mg/kg Captopril po daily),Body weight ([3]; 15 mg/kg Captopril po daily),Myh7 expression in cardiac tissue [4],Myh6 expression in cardiac tissue [4],Myh6 expression in cardiac tissue ([4]; listed as control oligonucleotide),Body weight ([3]; oligonucleotide 25 mg/kg sc every 2 weeks)
"C[C@H](CS)C(=O)N1CCC[C@H]1C(=O)O [Captopril, reference compound]",reduced specifically,reduced specifically,significantly reduced,decreased,no apparent effect,normalized,reduced the increase,pronounced decrease in survival,slightly reduced the high-salt (HS) diet-induced decrease in body weight,,,,
"M-10591: control oligonucleotide targeting miR-67 from C. elegans; 5′-TCCTAGAAAGAGTAGA-3′ (SEQ ID NO:13) (LNA-modified control oligonucleotide, pattern not given here) [reference compound]",,,,,,,,,,significantly increased,significant decrease,no effect,no apparent effect on weight gain
